Format in all cases: biochemical
Assay [1] concerns the target T1, GBA2 (Homo sapiens (Human), UniProt Q9HCG7). The assay is described as follows: Inhibition of GBA2 in cell lysate (4-methylumbelliferone glucopyranoside substrate).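 Also: homogenate of stably transfected HEK293T cells pre-treated with a GCase inhibitor, test compound preincubated 5 min at 37 °C, substrate reaction 20 min at 37 °C.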 Conditions: HEK293T-overexpressing GBA2 cellular homogenate, pH 5.5; read-out: GBA2 IC50.
The test system of assay [2] is rat intestinal alpha-glucosidases. The assay is described as follows: Inhibition of rat intestinal alpha-glucosidases (rat intestinal lysate, glucose detection). Particulars: compound concentration 25 μM, sucrose as substrate. The protocol: Assay for Determination of Inhibition of Rat Intestinal Alpha-Glucosidases
Various concentrations of test compounds were prepared in DMSO and then diluted into buffer consisting of 100 mM citric acid, 200 mM disodium phosphate, pH 6.0. Rat intestinal acetone powder (Sigma) was dissolved to 12.5 mg/mL in assay buffer and sonicated in an ice bath, centrifuged, and the supernatant was collected, aliquoted and stored at −20° C. until use. On the day of the assay, the rat intestinal lysate was diluted to 6.25 mg/mL (sucrose reactions) and 2.1 mg/ml (maltose reactions) in assay buffer. The final reaction solutions for sucrose contained 2.1 mg/mL rat intestinal lysate, 40 mM sucrose, 50 or 25 μM of test compound, and 3.3% DMSO. The final reaction solution for maltose contained 0.69 mg/mL rat intestinal lysate, 10 mM maltose, 50 or 25 μM of test compound, and 3.3% DMSO. The reaction was initiated by the addition of substrate (sucrose or maltose) and allowed to proceed at 37° C. for 20 min to assess rat intestinal alpha-glycosidase activities. The reaction was stopped by addition of 20 μL of 2 M Tris-HCl, pH 7.0. The glucose produced during the reaction was detected using a commercial Amplex Red glucose detection kit from Thermo Fisher. For a full plate, the Amplex Red detection mixture was prepared by mixing 35 μL glucose oxidase, 35 μL horseradish peroxidase and 35 μL Amplex Red into 3395 μL 1× Amplex Red detection buffer. A total of 30 μL of detection mixture was added to each well. Fluorescence was measured in kinetic mode on a Biotek Synergy H4 plate reader at a wavelength of 573 nm for excitation and 610 nm for emission for 15 min and quantified from the data at 10 min. Incubations without added rat intestinal lysate were used to correct for the background amount of glucose present in the samples. Incubations without added test compound were used to define maximal enzyme activity. Percent inhibition of rat intestinal alpha-glucosidases was determined by dividing the amount of glucose detected in the presence of test compound by the amount of glucose detected in the maximal enzyme activity wells. All conditions were analyzed in triplicate. […] The final reaction solutions were the same as described above for the Amplex Red Detection kit. After a 20 min reaction time at 37° C., 100 μL of hexokinase glucose reagent was added to all test wells except for the no enzyme added control wells and no test compound added wells. The plate was incubated for a further 15 min at room temperature and the absorbance was read at 340 nm on a Biotek Synergy H4 plate reader. The percent inhibition of rat intestinal alpha-glucosidases was determined in a similar manner as described above.

Assay [3] concerns the target T1, GBA2. The assay is described as follows: Binding specificity for GBA2 over other molecules, Ki or IC50 ratio. An excerpt: In some embodiments, one or more of the compounds according to the invention may specifically bind a GBA2. In alternative embodiments, one or more of the compounds according to the invention may specifically bind the active site of a GBA2. […] In alternative embodiments, one or more of the compounds according to the invention may specifically bind the human non-lysosomal glucosylceramidase (GBA2) over the human lysosomal glucosylceramidase (GCase) and/or the human cytosolic glucosylceramidase (GBA3). In alternative embodiments, one or more of the compounds according to the invention may specifically bind the human non-lysosomal glucosylceramidase (GBA2) over the human glucosylceramide synthase (GCS). In alternative embodiments, one or more of the compounds according to the invention may specifically bind the human non-lysosomal glucosylceramidase (GBA2) over an intestinal alpha-glucosidase, where the intestinal alpha-glucosidase may be a sucrase-isomaltase or a maltase-glucoamylase.

T1 sequence (Q9HCG7 whole entry): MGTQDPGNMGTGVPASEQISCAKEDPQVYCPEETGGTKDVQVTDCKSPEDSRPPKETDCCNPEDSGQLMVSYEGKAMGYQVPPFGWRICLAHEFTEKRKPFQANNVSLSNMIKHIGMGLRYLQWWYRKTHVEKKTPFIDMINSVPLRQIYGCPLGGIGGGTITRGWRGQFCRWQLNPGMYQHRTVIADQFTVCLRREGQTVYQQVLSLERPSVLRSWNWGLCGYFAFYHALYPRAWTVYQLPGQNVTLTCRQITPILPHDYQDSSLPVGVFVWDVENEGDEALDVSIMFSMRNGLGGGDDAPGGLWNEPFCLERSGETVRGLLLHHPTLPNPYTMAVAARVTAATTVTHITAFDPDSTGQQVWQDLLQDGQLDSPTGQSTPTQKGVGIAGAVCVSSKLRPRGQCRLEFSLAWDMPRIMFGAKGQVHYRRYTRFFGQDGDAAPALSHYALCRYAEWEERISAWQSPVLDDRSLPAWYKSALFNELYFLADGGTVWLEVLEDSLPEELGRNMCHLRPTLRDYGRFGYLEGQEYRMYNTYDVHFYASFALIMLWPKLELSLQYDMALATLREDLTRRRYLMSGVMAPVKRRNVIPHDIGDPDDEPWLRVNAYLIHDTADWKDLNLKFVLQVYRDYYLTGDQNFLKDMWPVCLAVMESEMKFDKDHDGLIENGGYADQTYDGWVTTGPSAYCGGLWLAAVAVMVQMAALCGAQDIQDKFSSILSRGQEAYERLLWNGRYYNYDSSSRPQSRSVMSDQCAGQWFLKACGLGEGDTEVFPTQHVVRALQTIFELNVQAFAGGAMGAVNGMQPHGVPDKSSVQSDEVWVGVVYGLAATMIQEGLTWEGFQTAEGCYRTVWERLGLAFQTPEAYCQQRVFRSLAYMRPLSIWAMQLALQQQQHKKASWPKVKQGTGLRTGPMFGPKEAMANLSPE

Regarding `O[C@H]1[C@H](O)CN(C[C@H]2CC[C@H](C(F)(F)F)CC2)C[C@@H]1O` [Example 1, (3S,4R,5R)-1-(((1r,4R)-4-(trifluoromethyl)cyclohexyl)methyl)piperidine-3,4,5-triol], the IC50 in assay [1] is less than 100 nM. In addition, the “rat α-glu. (% inhib.)” value in assay [2] was 0%. Besides, in assay [3], the “binding specificity, IC50(other molecule)/IC50(GBA2) or Ki ratio” value is recorded as “enhanced binding specificity”.
The matching figures for `O[C@H]1[C@H](O)CN(C[C@H]2CC[C@@H](C(F)(F)F)CC2)C[C@@H]1O` [Example 2, (3S,4R,5R)-1-(((1s,4S)-4-(trifluoromethyl)cyclohexyl)methyl)piperidine-3,4,5-triol]: less than 100 nM, 4% and “enhanced binding specificity”.
Consider `CC(C)(F)[C@H]1CC[C@@H](CN2C[C@@H](O)[C@H](O)[C@@H](O)C2)CC1` [Example 3, (3S,4R,5R)-1-(((1s,4S)-4-(2-fluoropropan-2-yl)cyclohexyl)methyl)piperidine-3,4,5-triol], for which the IC50 in assay [1] was less than 100 nM. Besides, the “rat α-glu. (% inhib.)” value in assay [2] is on record as 1%. For the same compound, the “binding specificity, IC50(other molecule)/IC50(GBA2) or Ki ratio” value in assay [3] is “enhanced binding specificity”.
Turning to `O[C@H]1[C@H](O)CN(CCc2c(F)ccc(Cl)c2F)C[C@@H]1O` [Example 7, (3S,4r,5R)-1-(3-chloro-2,6-difluorophenethyl)piperidine-3,4,5-triol], in assay [1], the IC50 was less than 100 nM. For the same compound, the “rat α-glu. (% inhib.)” value in assay [2] is reported as 0%. Moreover, the “binding specificity, IC50(other molecule)/IC50(GBA2) or Ki ratio” value in assay [3] is on record as “enhanced binding specificity”.
In the same order, the values of `O[C@H]1[C@H](O)CN(CCc2c(F)cc(OCC3CC3)cc2F)C[C@@H]1O` [Example 9, (3S,4r,5R)-1-(4-(cyclopropylmethoxy)-2,6-difluorophenethyl)piperidine-3,4,5-triol] are less than 100 nM, 0% and “enhanced binding specificity”.
For the compound `O[C@H]1[C@H](O)CN(CCc2c(F)cc(N3CCCC3)cc2F)C[C@@H]1O` [Example 10, (3S,4r,5R)-1-(2,6-difluoro-4-(pyrrolidin-1-yl)phenethyl)piperidine-3,4,5-triol], the IC50 in assay [1] was less than 100 nM. In addition, the “rat α-glu. (% inhib.)” value in assay [2] is recorded as 7%. Further, the “binding specificity, IC50(other molecule)/IC50(GBA2) or Ki ratio” value in assay [3] is “enhanced binding specificity”.
As for `O[C@H]1[C@H](O)CN(CCc2c(F)cc(N3CCCCC3)cc2F)C[C@@H]1O` [Example 11, (3S,4r,5R)-1-(2,6-difluoro-4-(piperidin-1-yl)phenethyl)piperidine-3,4,5-triol], the IC50 in assay [1] was less than 100 nM. Besides, the “rat α-glu. (% inhib.)” value in assay [2] came to 10%. Moreover, the “binding specificity, IC50(other molecule)/IC50(GBA2) or Ki ratio” value in assay [3] is “enhanced binding specificity”.
On to `O[C@H]1[C@H](O)CN(CCc2c(F)cc(N3CCOCC3)cc2F)C[C@@H]1O` [Example 12, (3S,4r,5R)-1-(2,6-difluoro-4-morpholinophenethyl)piperidine-3,4,5-triol], for which the IC50 in assay [1] was less than 100 nM. The “rat α-glu. (% inhib.)” value in assay [2] turned out to be 4%. In addition, the “binding specificity, IC50(other molecule)/IC50(GBA2) or Ki ratio” value in assay [3] is on record as “enhanced binding specificity”.
For `O[C@H]1[C@H](O)CN(CCc2c(F)cc(C3CCOCC3)cc2F)C[C@@H]1O` [Example 13, (3S,4r,5R)-1-(2,6-difluoro-4-(tetrahydro-2H-pyran-4-yl)phenethyl)piperidine-3,4,5-triol], the IC50 in assay [1] is less than 100 nM. Further, the “rat α-glu. (% inhib.)” value in assay [2] worked out at 5%. In assay [3], the “binding specificity, IC50(other molecule)/IC50(GBA2) or Ki ratio” value is on record as “enhanced binding specificity”.
Take `Cc1noc(C)c1-c1cc(F)c(CCN2C[C@@H](O)[C@H](O)[C@@H](O)C2)c(F)c1` [Example 14, (3S,4r,5R)-1-(4-(3,5-dimethylisoxazol-4-yl)-2,6-difluorophenethyl)piperidine-3,4,5-triol]: in assay [1], the IC50 was less than 100 nM. Further, in assay [2], the “rat α-glu. (% inhib.)” value was 2%. Moreover, the “binding specificity, IC50(other molecule)/IC50(GBA2) or Ki ratio” value in assay [3] is listed as “enhanced binding specificity”.
`Cc1n[nH]c(C)c1-c1cc(F)c(CCN2C[C@@H](O)[C@H](O)[C@@H](O)C2)c(F)c1` [Example 15, (3S,4r,5R)-1-(4-(3,5-dimethyl-1H-pyrazol-4-yl)-2,6-difluorophenethyl)piperidine-3,4,5-triol]: the IC50 in assay [1] is less than 100 nM. Also, in assay [2], the “rat α-glu. (% inhib.)” value came to 8%. Besides, in assay [3], the “binding specificity, IC50(other molecule)/IC50(GBA2) or Ki ratio” value is on record as “enhanced binding specificity”.
For the compound `Cc1ccccc1N1CC[C@H](CN2C[C@@H](O)[C@H](O)[C@@H](O)C2)C1` [Example 18, (3S,4R,5R)-1-(((R)-1-(o-tolyl)pyrrolidin-3-yl)methyl)piperidine-3,4,5-triol], the IC50 in assay [1] was less than 100 nM. In addition, the “rat α-glu. (% inhib.)” value in assay [2] came to 0%. The “binding specificity, IC50(other molecule)/IC50(GBA2) or Ki ratio” value in assay [3] is given as “enhanced binding specificity”.
Turning to `O[C@H]1[C@H](O)CN(C[C@H]2CCN(c3cnccc3C(F)(F)F)C2)C[C@@H]1O` [Example 20, (3S,4R,5R)-1-(((R)-1-(4-(trifluoromethyl)pyridin-3-yl)pyrrolidin-3-yl)methyl)piperidine-3,4,5-triol], the IC50 in assay [1] was less than 100 nM. Further, in assay [2], the “rat α-glu. (% inhib.)” value came out at 4%. The “binding specificity, IC50(other molecule)/IC50(GBA2) or Ki ratio” value in assay [3] is “enhanced binding specificity”.
On to `O[C@H]1[C@H](O)CN(CC2(F)CCN(c3nc4ccccc4s3)CC2)C[C@@H]1O` [Example 196, (3S,4r,5R)-1-((1-(benzo[d]thiazol-2-yl)-4-fluoropiperidin-4-yl)methyl)piperidine-3,4,5-triol], for which the IC50 in assay [1] is 100 to 1000 nM. The “rat α-glu. (% inhib.)” value in assay [2] was found to be 10%.
In the same order, the values of `CCCCOc1ccc(CN2C[C@@H](O)[C@H](O)[C@@H](O)C2)cc1` [Example 197, (3S,4r,5R)-1-(4-butoxybenzyl)piperidine-3,4,5-triol] are less than 100 nM and 5%.
The matching figures for `CCCCCOc1ccc(CN2C[C@@H](O)[C@H](O)[C@@H](O)C2)cc1` [Example 198, (3S,4r,5R)-1-(4-(pentyloxy)benzyl)piperidine-3,4,5-triol]: less than 100 nM and 12%.
In the case of `CCCCOc1cc(F)c(CN2C[C@@H](O)[C@H](O)[C@@H](O)C2)c(F)c1` [Example 199, (3S,4r,5R)-1-(4-butoxy-2,6-difluorobenzyl)piperidine-3,4,5-triol], the IC50 in assay [1] fell in the range of 1000 to 25000 nM. Further, the “rat α-glu. (% inhib.)” value in assay [2] is 5%.
Consider `O[C@H]1[C@H](O)CN(Cc2ccc(OCC3CC3)cc2)C[C@@H]1O` [Example 200, (3S,4r,5R)-1-(4-(cyclopropylmethoxy)benzyl)piperidine-3,4,5-triol], for which the IC50 in assay [1] is less than 100 nM. Also, the “rat α-glu. (% inhib.)” value in assay [2] was 7%.
For the compound `O[C@H]1[C@H](O)CN(Cc2ccc(Oc3ccccc3)cc2)C[C@@H]1O` [Example 201, (3S,4r,5R)-1-(4-phenoxybenzyl)piperidine-3,4,5-triol], in assay [1], the IC50 is less than 100 nM. Moreover, in assay [2], the “rat α-glu. (% inhib.)” value amounted to 3%.
Regarding `O[C@H]1[C@H](O)CN(Cc2ccc(-c3ccccc3)cc2)C[C@@H]1O` [Example 202, (3S,4r,5R)-1-([1,1′-biphenyl]-4-ylmethyl)piperidine-3,4,5-triol], the IC50 in assay [1] is less than 100 nM. Further, the “rat α-glu. (% inhib.)” value in assay [2] is listed as 11%.
On to `O[C@H]1[C@H](O)CN(Cc2ccc(N3CCCCC3)cc2)C[C@@H]1O` [Example 204, (3S,4r,5R)-1-(4-(piperidin-1-yl)benzyl)piperidine-3,4,5-triol], for which the IC50 in assay [1] was in the range of 100 to 1000 nM. For the same compound, the “rat α-glu. (% inhib.)” value in assay [2] is 4%.
As to `O[C@H]1[C@H](O)CN(Cc2cccs2)C[C@@H]1O` [Example 205, (3S,4r,5R)-1-(thiophen-2-ylmethyl)piperidine-3,4,5-triol], the IC50 in assay [1] fell in the range of 1000 to 25000 nM. In assay [2], the “rat α-glu. (% inhib.)” value stood at 4%.

In general, IC50 refers to the concentration that gives 50% inhibition.
